The values below come from US6414142B1, “Process for preparing potassium clavulanate” (SmithKline Beecham Corporation, priority 1996, dated 2002).

What all share (type): physicochemical
Series [1] in a line: Particle size distribution of potassium clavulanate crystalline forms. Particulars: crystalline form comparison, Example 5.
The nature of series [2]: Stability / shelf-life compared with prior art crystalline forms. The note with it: compared to rosette, needle and starburst forms; generally lower polymer level.
The nature of series [3]: Flowability of potassium clavulanate crystalline forms. The note with it: crystalline form comparison, Example 5.

For the compound `O=C(O)[C@H]1/C(=C/CO)O[C@@H]2CC(=O)N21` [Rosette-like Starbursts, potassium clavulanate], in series [1], the “Particle Size Distribution” value was 35.1- 97.9 microns. For the same compound, in series [2], the stability and shelf-life result is given as “greater stability”. In addition, the Flowabiiity in series [3] stood at 4.8.

As for `O=C(O)[C@H]1/C(=C/CO)O[C@@H]2CC(=O)N21` [Needles/rods, potassium clavulanate], the “Particle Size Distribution” value in series [1] is on record as 34.1-67.3 microns. The Flowabiiity in series [3] is 3.4.

Turning to `O=C(O)[C@H]1/C(=C/CO)O[C@@H]2CC(=O)N21` [Starbursts/Broken Starbursts, potassium clavulanate], the “Particle Size Distribution” value in series [1] is given as 33.5-70.5 microns.

For `O=C(O)[C@H]1/C(=C/CO)O[C@@H]2CC(=O)N21` [Rosettes, potassium clavulanate], the “Particle Size Distribution” value in series [1] is given as 34.8- 66.4 microns. The Flowabiiity in series [3] is 6.1.
